Experiments:
[1] = test system: phorbol 12-myristate-13-acetate induced ear swelling; test: Acute cutaneous inflammation in mice (phorbol 12-myristate-13-acetate test); format: in vivo; details: Mus musculus; topical on ears of mice 30 minutes before phorbol 12-myristate-13-acetate; swelling of the ear at 6 hours
Method: In the following test, the measurements were carried out on groups of five mice. The tests on the groups of control mice are carried out at the same time as those on the groups of mice which have received the test compounds.
5 μg of phorbol 12-myristate-13-acetate in 20 μl of an ethanol/water mixture (8:2) are applied to the front and rear surfaces of the right ears of the mice, 30 minutes after the application in a similar manner of the test compounds or of the vehicle (2×20 μl at 5-minute intervals in absolute alcohol). The swelling of the ear is measured 6 hours later with the aid of a Dyer micrometer. That measurement is used as the inflammation index.

cyclo-oxygenase = test: PGE2 production by rabbit granulocytes stimulated in vitro by A 23187 (enzyme immunoassay); format: cell-based; details: 10-^7 M
Text: (§1) The object of this study is to determine the effects of compounds of the invention on the lipoxygenase and cyclo-oxygenase activities of rabbit granulocytes stimulated in vitro by A 23187, by measuring the levels of PGE2 and LTB4 thus liberated by means of an enzyme immunoassay (EIA). The granulocytes are isolated from rabbit blood collected from the main artery of the ear according to the method described by Trush et al. (1978). They are suspended, at a density of 10^6 cells/cm^3, in a phosphate buffer (mM): NaCl: 137; KCl: 2.68; Na2 HPO4 : 8.1; KH2 PO4 : 1.47; CaCl2 : 0.9; MgCl2 : 0.5 The freshly obtained granulocytes are pre-incubated for a period of 15 minutes at 37° C. in the presence of the test products. The results are expressed as percentages of the positive control. The values are presented as the mean±s.e.m. of three measurements carried out on the same day, for the "screening" study, and of three measurements carried out on three different days for the IC50 study. The IC50 values and the Hill number values (Hn) are determined by modelling using the Hill equation.

5-lipoxygenase = test: LTB4 production by rabbit granulocytes stimulated in vitro by A 23187 (enzyme immunoassay); format: cell-based; details: 10-^7 M
Text: as §1

IC50 [1]	effect on the production of PGE2 (cyclo-oxygenase)	inhibition of the production of LTB4 (5-lipoxygenase)	Structure (SMILES)
15 µM			O=C(O)Cn1c2c(c3cc(OCc4ccc5ccccc5n4)ccc31)CCCCCC2 [Example 4, 2-{3-[(QUINOL-2-YL)METHYLOXY]-5,6,7,8,9,10,11-HEPTAHYDRO-CYCLOOCT[b]INDOLE}ACETIC ACID]
20 µM	without reducing	completely	CCOC(=O)Cn1c2c(c3cc(OCc4ccc5ccccc5n4)ccc31)CCCCCC2 [Example 2]

From patent publication US5635516A, “(Thia) cycloalkyl[B]indole compounds as anti-inflammatory agents” (Adir et Compagnie, priority 1994, dated 1997)
